Laboratory results published in patent US20040220239A1, “Inhibitors of serine protease activity methods and compositions for treatment of nitric oxide-induced clinical conditions” (priority 2003, published 2004).
Entries after “also recorded” stand apart in the source; their conditions may differ.

Tests used:
Type in all cases: cell-based
[1] = test system: RAW 264.7 macrophages; experiment: NO release induced by LPS and γ-IFN in macrophagic cells (nitrite, Greiss reagent); details: induction with γ-IFN and LPS, FIG. 1, FIG. 4
Procedure: RAW 264.5 macrophages are selected for measuring the effect of α1-antitrypsin on NO release. RAW 264.7 cell monolayers are pretreated for 1 hour with α1-antitrypsin (0.1-3 mg/ml), followed by costimulation by interferon-γ(10 U/ml), and LPS (1 ng/ml) for 18 hours. Aliquots (100 μl) of supernatant are combined with equal volumes of Greiss reagent and incubated at room temperature for 10 minutes. The colorimetric determination of nitrite concentration is measured by absorbance at 550 nm and quantified with a standard curve. The combination of LPS and interferon-γ is a potent stimulus for NO release in […] macrophages. The effect of α1-antitrypsin at 3 mg/ml on NO expression is measured.

[2] = test system: NF-κB; experiment: Electrophoretic mobility shift assay of NF-κB induced by interleukin-18; details: induced by incubation with IL-18, EMSA; FIG. 3
[3] = test system: p-ERK (p42/p44 MAP kinase); experiment: Western blot of p-ERK expression; details: FIG. 5
[4] = test system: iNOS protein; experiment: Induction of iNOS protein by LPS and γ-interferon, Western blot; details: macrophagic cells, γ-IFN and LPS, FIG. 2
Procedure: RAW 264.7 macrophage monolayers are treated for 1 hour with α1-antitrypsin (3 mg/ml), followed by costimulation by interferon-γ (10 U/ml), and LPS (1 ng/ml) for 18 hours. The cells are lysed by exposure to lysis solution (50 mm Tris-HCl, pH 8.0, 137 mm NaCl, 10% (v/v) glycerol, 1% (v/v), Nonidet P-40, 1 mM NaF, 10 μg/ml leupeptin, […] aprotinin, 2 mM sodium vanadate, and 1 mM phenylmethylsulfonyl fluoride). Samples containing equivalent amounts of total protein are subjected to SDS-polyacrylamide gel electrophoresis. Western blots of the gels are prepared, non-specific sites blocked by incubation overnight with 5% non-fat dry milk, and iNOS detected by incubation with iNOS anti-serum (Alexis Corporation, 1:1000 in 5% (w/v) bovine serum albumin in a solution of 20 mm Tris-HCl, pH 7.6, 137 mM […], and 0.005% (v/v) Tween 20). Using horseradish peroxidase-conjugated second antibody, the antibody bound to iNOS is detected by enhanced chemiluminescence. The effect of the combination of interferon-γ, and LPS on induction of iNOS in the cell extract and the effect of pretreatment with α1-antitrypsin are measured.

[5] = test system: herpes simplex virus (HSV); experiment: Herpes simplex virus replication; details: FIG. 7
[6] = test system: cytomegalovirus (CMV); experiment: Cytomegalovirus replication in infected RAW 264.5 macrophages; details: RAW 264.5 macrophages infected with CMV; FIG. 6

Molecule | effect on NO levels (measured as NO2-) induced by γ-IFN and LPS [1] | effect on induction of active NF-κB [2] | effect on level and/or phosphorylation of p-ERK [3] | effect on induction of iNOS protein [4] | effect on replication of HSV [5] | effect on CMV replication [6]
Cc1cccc(Cc2nnc(C(=O)C(NC(=O)[C@@H]3CCCN3C(=O)[C@@H](NC(=O)OCc3ccccc3)C(C)C)C(C)C)o2)c1 (stereo partly drawn) [CE-2072, benzyloxycarbonyl-L-valyl-N-[1-(2-[5-(3-methylbenzyl)-1,3,4-oxadiazolyl]carbonyl)-2-(S)-methylpropyl]-L-prolinamide, reference compound] | inhibits NO levels | inhibit the induction of active NF-κB | – | – | – | –
α1-antitrypsin | efficiently block γ-IFN- and LPS-induced NO synthesis; also recorded: inhibits NO levels | inhibit the induction of active NF-κB | inhibits the level and/or phosphorylation of p-ERK | inhibits induction of iNOS protein | inhibits replication of HSV | blocks CMV replication
